Holding throughout (test): MIC, broth microdilution growth inhibition
Type in all cases: cell-based
Holding throughout (details): Mueller-Hinton broth, 37° C., 18 h, unit assumed
A general note: Broth dilution looks for growth in wells or tubes with falling amounts of substance.

One experiment has as its system A. calcoaceticus 1726. The method, then: (§1) Growth inhibitory activity was determined on liquid medium by the antibiotic dilution technique using 96-well microtiter system plates containing two-fold dilutions of antibiotic-agent in 0.2 ml. of Mueller-Hinton broth. Plates were inoculated with each test organism to yield a final inoculum of 5×10^5 CFU/ml and were incubated aerobically at 37° C. for 18 h. The MIC was defined as the lowest concentration of antibacterial agent that inhibited development of visible growth in the microdilution wells. GAR936 can be prepared e.g. as in J. Med Chem 1994, 37 184-188. Minocyline is available from e.g. Aldrich.

The subject of a further experiment is E. coli 851E. The protocol: as §1
A further experiment relates to E. coli D1-209 Tet R. The method, then: as §1
The next experiment has as its system E. coli D1-299 Tet R. The method, then: as §1
In the next experiment the test system is E. faecalis 73 Tet R. The method, then: as §1
A further experiment deals with E. faecalis ATCC 29212. The method, then:
as §1

In the next experiment the test system is E. faecium 494. The method, then: as §1
Another experiment deals with E. faecium 97 Tet R. The protocol:
as §1

The test system of a further experiment is H. influenzae ATCC 4927. The method, then: as §1
A further experiment deals with K. Pneumoniae 3226. The protocol: as §1
The subject of experiment [1] is M. catarrhalis ATCC 23246. The method, then: as §1
The next experiment deals with P. aeruginosa 3808. The method, then:
as §1

The subject of a further experiment is S. aureus ATCC 29213. The method, then: as §1
A further experiment concerns S. aureus GFX01596 Tet R. The method, then: as §1
Another experiment deals with S. pneumoniae 157. The protocol: as §1
The test system of experiment [2] is S. pneumoniae GFX01778 Tet R. The protocol:
as §1

Another experiment has as its system E. coli 851ML308-225. The protocol:
as §1

Values after ≈ are worked out from the molar mass of the structure shown. Where only a bound is given, the exact number is not on record here.

Consider `CN(C)c1cc(NC(=O)CNC(C)(C)C)c(O)c2c1C[C@H]1C[C@H]3[C@H](N(C)C)C(O)=C(C(N)=O)C(=O)[C@@]3(O)C(O)=C1C2=O` [GAR-936], for which the MIC with A. calcoaceticus 1726 is 32 µg/mL (≈ 54.6 µM); in the experiment on E. coli 851E it was 1 µg/mL (≈ 1.71 µM); against E. coli D1-209 Tet R, 0.5 µg/mL (≈ 0.854 µM); against E. coli D1-299 Tet R, 0.5 µg/mL (≈ 0.854 µM); in the experiment on E. faecalis 73 Tet R, 0.5 µg/mL (≈ 0.854 µM); against E. faecalis ATCC 29212, 0.5 µg/mL (≈ 0.854 µM). Besides, the MIC stood at 0.5 µg/mL (≈ 0.854 µM) in the experiment with E. faecium 494; 0.5 µg/mL (≈ 0.854 µM) in the experiment on E. faecium 97 Tet R; 1 µg/mL (≈ 1.71 µM) against H. influenzae ATCC 4927; 2 µg/mL (≈ 3.41 µM) in the experiment with K. Pneumoniae 3226; 0.12 µg/mL (≈ 0.205 µM) in experiment [1]; 32 µg/mL (≈ 54.6 µM) against P. aeruginosa 3808. For the same molecule, the MIC with S. aureus ATCC 29213 is 0.5 µg/mL (≈ 0.854 µM); in the experiment with S. aureus GFX01596 Tet R it was 1 µg/mL (≈ 1.71 µM); against S. pneumoniae 157 it was 0.25 µg/mL (≈ 0.427 µM); in experiment [2] it was 0.06 µg/mL (≈ 0.102 µM).

For `CN(C)[C@@H]1C(O)=C(C(N)=O)C(=O)[C@@]2(O)C(O)=C3C(=O)c4c(O)ccc(-n5ccc(C=O)c5)c4C[C@H]3C[C@@H]12` [Compound B, [4S-(4aα,5aα,12aα)]-4-(Dimethylamino)-7-(1H-pyrrol-1-yl-3-carboxaldehyde)-1,4,4a,5,5a,6,11,12a-octahydro-3,10,12,12a-tetrahydroxy-1,11-dioxo-2-naphthacenecarboxamide], the MIC is over 128 µg/mL in the experiment on A. calcoaceticus 1726; 1 µg/mL (≈ 1.97 µM) against E. coli 851E; 0.5 µg/mL (≈ 0.985 µM) with E. coli 851ML308-225; over 128 µg/mL against E. coli D1-209 Tet R; 32 µg/mL (≈ 63.1 µM) with E. coli D1-299 Tet R; 8 µg/mL (≈ 15.8 µM) in the experiment with E. faecalis 73 Tet R. In addition, the MIC in the experiment with E. faecalis ATCC 29212 is 2 µg/mL (≈ 3.94 µM); against E. faecium 494 it was 32 µg/mL (≈ 63.1 µM); in the experiment on E. faecium 97 Tet R, over 128 µg/mL; in the experiment with H. influenzae ATCC 4927, 1 µg/mL (≈ 1.97 µM); in the experiment with K. Pneumoniae 3226, over 128 µg/mL; in experiment [1], 0.008 µg/mL (≈ 0.0158 µM). The MIC in the experiment on P. aeruginosa 3808 is over 128 µg/mL; in the experiment on S. aureus ATCC 29213, 0.015 µg/mL (≈ 0.0296 µM); against S. aureus GFX01596 Tet R, 0.25 µg/mL (≈ 0.493 µM); with S. pneumoniae 157, 0.015 µg/mL (≈ 0.0296 µM); in experiment [2], 2 µg/mL (≈ 3.94 µM).

As for `CN(C)[C@@H]1C(O)=C(C(N)=O)C(=O)[C@@]2(O)C(O)=C3C(=O)c4c(O)ccc(-n5ccc(C#N)c5)c4C[C@H]3C[C@@H]12` [Compound A, [4S-(4aα,5aα,12aα)]-7-(3-Cyanopyrrol-1-yl)-4-(Dimethylamino)-1,4,4a,5,5a,6,11,12a-octahydro-3,10,12,12a-tetrahydroxy-1,11-dioxo-2-naphthacenecarboxamide], the MIC in the experiment on A. calcoaceticus 1726 was 8 µg/mL (≈ 15.9 µM); in the experiment on E. coli 851E, 1 µg/mL (≈ 1.98 µM); with E. coli 851ML308-225, 0.5 µg/mL (≈ 0.991 µM); in the experiment with E. coli D1-209 Tet R, 16 µg/mL (≈ 31.7 µM); with E. coli D1-299 Tet R, 4 µg/mL (≈ 7.93 µM); with E. faecalis 73 Tet R, 4 µg/mL (≈ 7.93 µM). Moreover, the MIC in the experiment with E. faecalis ATCC 29212 was 2 µg/mL (≈ 3.96 µM); against E. faecium 494 it was 8 µg/mL (≈ 15.9 µM); with E. faecium 97 Tet R it was 8 µg/mL (≈ 15.9 µM); in the experiment on H. influenzae ATCC 4927, 0.5 µg/mL (≈ 0.991 µM); against K. Pneumoniae 3226, over 128 µg/mL; in [1], 0.001 µg/mL (≈ 0.00198 µM). The MIC is over 128 µg/mL against P. aeruginosa 3808; 0.015 µg/mL (≈ 0.0297 µM) in the experiment on S. aureus ATCC 29213; 0.5 µg/mL (≈ 0.991 µM) in the experiment with S. aureus GFX01596 Tet R; 0.015 µg/mL (≈ 0.0297 µM) in the experiment with S. pneumoniae 157; 2 µg/mL (≈ 3.96 µM) in [2].

In the case of `CN(C)CC(=O)Nc1cc(-n2ccc(C=O)c2)c2c(c1O)C(=O)C1=C(O)[C@]3(O)C(=O)C(C(N)=O)=C(O)[C@@H](N(C)C)[C@@H]3C[C@@H]1C2` [Compound C], the MIC in the experiment with A. calcoaceticus 1726 was 16 µg/mL (≈ 26.3 µM); against E. coli 851E, 1 µg/mL (≈ 1.65 µM); against E. coli 851ML308-225, 0.03 µg/mL (≈ 0.0494 µM); with E. coli D1-209 Tet R it was 1 µg/mL (≈ 1.65 µM); against E. coli D1-299 Tet R it was 16 µg/mL (≈ 26.3 µM); with E. faecalis 73 Tet R, 0.004 µg/mL (≈ 0.00658 µM). The MIC in the experiment with E. faecalis ATCC 29212 worked out at 0.125 µg/mL (≈ 0.206 µM); in the experiment with E. faecium 494, 0.25 µg/mL (≈ 0.411 µM); in the experiment with E. faecium 97 Tet R it was 0.06 µg/mL (≈ 0.0987 µM); against H. influenzae ATCC 4927, 1 µg/mL (≈ 1.65 µM); in the experiment with K. Pneumoniae 3226 it was 125 µg/mL (≈ 206 µM); in [1] it was 0.002 µg/mL (≈ 0.00329 µM). In addition, the MIC is 32 µg/mL (≈ 52.7 µM) in the experiment with P. aeruginosa 3808; 0.125 µg/mL (≈ 0.206 µM) in the experiment with S. aureus ATCC 29213; 4 µg/mL (≈ 6.58 µM) against S. aureus GFX01596 Tet R; 0.015 µg/mL (≈ 0.0247 µM) with S. pneumoniae 157; 0.03 µg/mL (≈ 0.0494 µM) in experiment [2].

As for `CN(C)c1ccc(O)c2c1C[C@H]1C[C@H]3[C@H](N(C)C)C(=O)C(C(N)=O)=C(O)[C@@]3(O)C(=O)C1=C2O` [MINO, Minocyline], the MIC is 1 µg/mL (≈ 2.19 µM) in the experiment on A. calcoaceticus 1726; 0.5 µg/mL (≈ 1.09 µM) against E. coli 851E; 0.25 µg/mL (≈ 0.546 µM) against E. coli 851ML308-225; 16 µg/mL (≈ 35 µM) in the experiment on E. coli D1-209 Tet R; 1 µg/mL (≈ 2.19 µM) against E. coli D1-299 Tet R; 32 µg/mL (≈ 69.9 µM) against E. faecalis 73 Tet R. The MIC against E. faecalis ATCC 29212 is 2 µg/mL (≈ 4.37 µM); against E. faecium 494, 32 µg/mL (≈ 69.9 µM); with E. faecium 97 Tet R it was 32 µg/mL (≈ 69.9 µM); with H. influenzae ATCC 4927, 0.5 µg/mL (≈ 1.09 µM); against K. Pneumoniae 3226 it was 32 µg/mL (≈ 69.9 µM); in [1], 0.001 µg/mL (≈ 0.00219 µM). The MIC stood at 16 µg/mL (≈ 35 µM) in the experiment on P. aeruginosa 3808; 0.03 µg/mL (≈ 0.0656 µM) against S. aureus ATCC 29213; 0.12 µg/mL (≈ 0.262 µM) with S. aureus GFX01596 Tet R; 0.5 µg/mL (≈ 1.09 µM) in the experiment with S. pneumoniae 157; 16 µg/mL (≈ 35 µM) in experiment [2].

These data come from patent US8211937B2, “7-pyrollyl 9-aminoacyl tetracycline compounds and methods of use thereof” (Paratek Pharmaceuticals, Inc., priority 2001, dated 2012).
